Among the test systems are EKVX NSCLC; MOLT-4 leukemia; IGROV1 ovarian; 786-0 renal; NCI-H23 lung; SK-MEL-28 melanoma; OVCAR-4 ovarian; MCF7 breast; NCI-H460 lung; T-47D breast.
Test in all cases: growth of human tumour cells (NCI), 48 h

“And” between values parts separate entries of the source, which are not always exact repeats. Equal values may be shown once.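 Following 48 hours of exposure in 96-well plates, responses at five concentrations were used to interpolate endpoints linearly. Here, GI50 denotes the concentration required for 50% inhibition of growth. TGI: total growth inhibition.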

Take `COc1cccc(C2C(C#N)=C(N)Oc3c2ccc2ccccc32)c1` (configuration not stated): the GI50 in the assay on EKVX NSCLC was 0.0617 µM; with MOLT-4 leukemia, 0.0409 µM; in the assay on IGROV1 ovarian, 0.0205 µM; in the assay with 786-0 renal it was 0.0364 µM; with NCI-H23 lung it was 0.026 µM; with SK-MEL-28 melanoma it was 2.31 µM. The GI50 with MCF7 breast was < 10 nM; with NCI-H460 lung, 0.0246 µM. Further, the TGI with EKVX NSCLC stood at 19.6 µM; in the assay with MOLT-4 leukemia it was 17.8 µM; in the assay with IGROV1 ovarian, 14.3 µM; with 786-0 renal, 12.3 µM; in the assay on NCI-H23 lung it was 6.74 µM; in the assay on SK-MEL-28 melanoma, 24.5 µM. Further, the TGI in the assay on OVCAR-4 ovarian turned out to be 18.6 µM; in the assay with MCF7 breast, 12.8 µM; in the assay on NCI-H460 lung it was 1.18 µM.

On to `O=C(NN1C(=O)CSC1c1ccc(F)cc1)C(O)c1ccccc1` (configuration not stated), for which the GI50 in the assay on EKVX NSCLC is > 100 µM; in the assay on MOLT-4 leukemia, > 100 µM; with IGROV1 ovarian it was > 100 µM; in the assay with 786-0 renal, > 100 µM; in the assay on T-47D breast it was 59.5 µM; in the assay on SK-MEL-28 melanoma, > 100 µM. The GI50 was > 100 µM with OVCAR-4 ovarian, > 100000 nM in the assay on MCF7 breast and 81.8 µM with NCI-H460 lung. Further, the TGI with EKVX NSCLC, in the assay on MOLT-4 leukemia, with IGROV1 ovarian, with 786-0 renal, with T-47D breast and in the assay on SK-MEL-28 melanoma was > 100 µM each time. Also, the TGI with OVCAR-4 ovarian, in the assay with MCF7 breast and in the assay on NCI-H460 lung was > 100 µM throughout.

As for `COc1cccc2c1[C@H]1CO[C@H]3C4C[C@H](C(=O)O)C([C@@H](C2)N13)N4C` (some centres not stated), the GI50 in the assay on EKVX NSCLC is 1.87 µM; in the assay with MOLT-4 leukemia it was 0.45 µM; in the assay on IGROV1 ovarian, 0.551 µM; in the assay on NCI-H23 lung, 0.564 µM; in the assay with SK-MEL-28 melanoma, 0.621 µM; in the assay with OVCAR-4 ovarian, 0.99 µM. Also, the figures for the GI50 with MCF7 breast and in the assay with NCI-H460 lung were 296 nM and 1.36 µM, respectively. Moreover, the TGI in the assay on EKVX NSCLC was 5.94 µM and 6.16 µM; in the assay on IGROV1 ovarian, 9.94 µM and 1.59 µM; in the assay with 786-0 renal it was 4.67 µM; in the assay on NCI-H23 lung, 5.47 µM and 1.63 µM; in the assay with SK-MEL-28 melanoma it was 4.91 µM and 1.65 µM; in the assay on OVCAR-4 ovarian it was 8.21 µM and 10.5 µM. The figures for the TGI with MCF7 breast and in the assay with NCI-H460 lung were 10 µM and > 38.2 µM, respectively.

For the compound `CCN(CC)C(=S)SSC(=S)N(CC)CC`, the GI50 is 25.7 µM and 25.6 µM in the assay with EKVX NSCLC; 17.7 µM and 16 µM in the assay on MOLT-4 leukemia; 142 µM in the assay with IGROV1 ovarian; 24.1 µM and 18.6 µM with 786-0 renal; 23 µM with NCI-H23 lung; 15.7 µM and 13 µM in the assay on T-47D breast. The GI50 was 15.8 µM and 26.8 µM in the assay with SK-MEL-28 melanoma; 13.5 µM and 13 µM in the assay on OVCAR-4 ovarian; 23.8 µM and 17.4 µM with NCI-H460 lung. The TGI in the assay with EKVX NSCLC is 84.6 µM and 73.3 µM; with MOLT-4 leukemia, 46.6 µM and 48.5 µM; in the assay with IGROV1 ovarian it was 543 µM; in the assay with 786-0 renal, > 56.2 µM and 39.7 µM; in the assay with NCI-H23 lung, > 76.7 µM and 70.1 µM; with T-47D breast, 51.3 µM and 39.3 µM. The TGI was 35.4 µM and 97.5 µM in the assay with SK-MEL-28 melanoma; 28.9 µM and 26.4 µM in the assay with OVCAR-4 ovarian; 84.2 µM and 66.4 µM in the assay with NCI-H460 lung.

Take `COc1ccc2c(c1)C(=O)c1c-2n(CCCN)c(=O)c2cc([N+](=O)[O-])ccc12`: the GI50 with EKVX NSCLC was < 0.01 µM; in the assay with MOLT-4 leukemia it was < 0.01 µM; with IGROV1 ovarian, < 0.01 µM; in the assay on 786-0 renal, < 0.01 µM; in the assay on T-47D breast it was < 0.01 µM; in the assay with MCF7 breast, < 10 nM. Also, in the assay on NCI-H460 lung, the GI50 is < 0.01 µM. The TGI with EKVX NSCLC is 2.31 µM; with MOLT-4 leukemia, < 0.01 µM; with IGROV1 ovarian it was 0.192 µM; in the assay on 786-0 renal, < 0.01 µM; in the assay with T-47D breast, 1.86 µM; in the assay on MCF7 breast it was < 0.01 µM. Besides, the TGI with NCI-H460 lung stood at 0.0146 µM.

Turning to `CCSc1nc(N)c(C#N)c(-c2ccco2)c1C#N`, the GI50 is 25.4 µM in the assay with EKVX NSCLC; 51.9 µM in the assay with MOLT-4 leukemia; 36.8 µM with IGROV1 ovarian; 39.6 µM with 786-0 renal; 53.2 µM in the assay on NCI-H23 lung; > 100 µM in the assay on SK-MEL-28 melanoma. The GI50 in the assay on OVCAR-4 ovarian was > 100 µM; in the assay with MCF7 breast, 15000 nM; with NCI-H460 lung, 33.5 µM. Also, the TGI with EKVX NSCLC, in the assay with MOLT-4 leukemia, with IGROV1 ovarian, in the assay with 786-0 renal, in the assay with NCI-H23 lung and in the assay with SK-MEL-28 melanoma was > 100 µM in each case. The TGI in the assay on OVCAR-4 ovarian, in the assay with MCF7 breast and in the assay with NCI-H460 lung was > 100 µM each time.

For the compound `CC1=C(C(=O)Nc2ccc(F)c(Cl)c2)C(c2ccccc2O)NC(=O)N1` (configuration not stated), the GI50 was > 100 µM in the assay on EKVX NSCLC; 50.2 µM with IGROV1 ovarian; > 100 µM in the assay with 786-0 renal; > 100 µM with NCI-H23 lung; 42.4 µM with T-47D breast; 79.7 µM in the assay on SK-MEL-28 melanoma. Further, the figures for the GI50 in the assay on OVCAR-4 ovarian, in the assay with MCF7 breast and in the assay with NCI-H460 lung were 12.2 µM, 70500 nM and 96.6 µM, respectively. Moreover, the TGI with EKVX NSCLC, with IGROV1 ovarian, in the assay on 786-0 renal, in the assay on NCI-H23 lung, in the assay on T-47D breast and in the assay with SK-MEL-28 melanoma was > 100 µM throughout. Further, the figures for the TGI in the assay on OVCAR-4 ovarian, in the assay on MCF7 breast and in the assay on NCI-H460 lung were 68.6 µM, > 100 µM and > 100 µM, respectively.

For the compound `O=C1/C(=C/c2cccc(Br)c2)COc2ccc(O)c(O)c21`, the GI50 was 1.78 µM in the assay with EKVX NSCLC; 0.927 µM in the assay with MOLT-4 leukemia; 0.996 µM with IGROV1 ovarian; 1.46 µM in the assay on 786-0 renal; 1.74 µM in the assay on NCI-H23 lung; 1.75 µM in the assay with SK-MEL-28 melanoma. For the same compound, the GI50 with OVCAR-4 ovarian was 1.51 µM; in the assay on MCF7 breast, 649 nM; in the assay with NCI-H460 lung, 2.14 µM. Also, the TGI in the assay on EKVX NSCLC turned out to be 3.52 µM; in the assay with MOLT-4 leukemia, 10.8 µM; with IGROV1 ovarian, 2.68 µM; with 786-0 renal, 4.1 µM; in the assay with NCI-H23 lung it was 4.25 µM; with SK-MEL-28 melanoma, 3.33 µM. Further, the TGI was determined as 2.85 µM in the assay on OVCAR-4 ovarian, 2.56 µM in the assay with MCF7 breast and 5.42 µM with NCI-H460 lung.
